# Data as given in patent publication EP0091090A2, “Bipyridine substituted imidazolidene copper complex and its use in food-producing animals, and bipyridine, 2,2'-(2-imidazolidinylidene) di-copper complex and use in animals” (INTERNATIONAL MINERALS & CHEMICAL CORPORATION, priority 1982, dated 1983).
# Test system: rumen fluid batch culture
# Experiment: Rumen fluid batch culture test: volatile fatty acid, gas (CH4 + H2), protein and amino acid accumulation (Example 2)
# Format: cell-based, steers
# Design: HFo (formate) / HAc (acetate) / HPr (propionate) / HiBu (isobutyrate) / HBu (butyrate) / HiVal (isovalerate) / Total / Caloric Value of H2 / Caloric Value of HFo / Caloric Value of HAc / Caloric Value of HPr / Caloric Value of HiBu / Caloric Value of HBu / Caloric Value of HiVal / Caloric Value of CH3: unit not given here
# Protocol: The above Formula IV composition was tested to determine its effectiveness as a feed additive for ruminants. The initial tests were in rumen fluid batch culture systems to determine the effect of the compound on volatile fatty acid/methane ratios (VFA/CH4). […] Test Procedure: A 50/50 mixture of ground corn and ground alfalfa was used as the substrate for the subject rumen fluid batch culture test. The compound (Formula IV ) was present in the rumen fluid in three separate test samples at 8.33, 25 and 75 ppm, respectively. On day 1, rumen fluid was obtained from mature fistulated steers on 50/50 concentrate/roughage diets. The rumen fluid (RF) was strained through three layers of gauze cloth and equilibrated with C02 gas. Wheaton serum vials (125 ml) were prepared ahead with 20 ml continuous batch buffer and 100 mg 50/50 ground corn/ground alfalfa. Controls and compounds (dissolved in acetone) were set up according to desired levels. The vials were kept under C02 gas until 20 ml of the strained RF was added. The vials were sealed and incubated at 39°C for 24 hours in a hot water bath. On successive days, gas samples (0.1 ml) were drawn for gas chromatography analysis before transferring 20 ml of the batch culture to another vial containing 20 ml of buffer, 100 mg substrate, and the corresponding compound. The remaining 20 ml was inoculated with 2 ml 6N HC1 and centrifuged at 15,000 rpm for 15 minutes. Ether extracts were prepared for volatile fatty acid (VFA) analysis. Some minor adjustments were made in the termperatures on the Hewlett-Packard 5750 Gas-Liquid Chromatograph used for VFA analysis when the glass column used was changed from 1/4 inch diameter to 1/8 inch diameter. Injection Port = 220°C Column Oven = 170°C Flame Detector = 250°C Only 4 minutes was needed to record the sample instead of the previous 7 minutes.
# [1] = 8.33 μg/ml, total produced on Day 10
substance,measurement,setting,value
"2,2'-(4,5-diphenyl-2H-imidazol-2-ylidene)bispyridine with CuCl2(1/1) [Formula IV Compound]",AA,"8.33 µg/ml, day 2",0.16 µmol/mL
same,CH4,"8.33 µg/ml, day 2",204 µ Moles
same,H2,"8.33 µg/ml, day 2",0 µ Moles
same,HAc (acetate),"8.33 µg/ml, day 2",43.83
same,HBu (butyrate),"8.33 µg/ml, day 2",12.33
same,HFo (formate),"8.33 µg/ml, day 2",1.48
same,HPr (propionate),"8.33 µg/ml, day 2",11.81
same,HiBu (isobutyrate),"8.33 µg/ml, day 2",1.27
same,HiVal (isovalerate),"8.33 µg/ml, day 2",0
same,Protein,"8.33 µg/ml, day 2",0 mg/mL
same,Total,"8.33 µg/ml, day 2",70.71
same,AA,"8.33 µg/ml, day 3",0.13 µmol/mL
same,CH4,"8.33 µg/ml, day 3",157 µ Moles
same,H2,"8.33 µg/ml, day 3",0 µ Moles
same,HAc (acetate),"8.33 µg/ml, day 3",33.35
same,HBu (butyrate),"8.33 µg/ml, day 3",9.87
same,HFo (formate),"8.33 µg/ml, day 3",0.92
same,HPr (propionate),"8.33 µg/ml, day 3",12.17
same,HiBu (isobutyrate),"8.33 µg/ml, day 3",1.14
same,HiVal (isovalerate),"8.33 µg/ml, day 3",1.14
same,Protein,"8.33 µg/ml, day 3",0 mg/mL
same,Total,"8.33 µg/ml, day 3",58.58
same,CH4,"8.33 µg/ml, day 4",164 µ Moles
same,H2,"8.33 µg/ml, day 4",0 µ Moles
same,HAc (acetate),"8.33 µg/ml, day 4",34.54
same,HBu (butyrate),"8.33 µg/ml, day 4",7.77
same,HFo (formate),"8.33 µg/ml, day 4",0.40
same,HPr (propionate),"8.33 µg/ml, day 4",13.16
same,HiBu (isobutyrate),"8.33 µg/ml, day 4",0.68
same,HiVal (isovalerate),"8.33 µg/ml, day 4",2.01
same,Total,"8.33 µg/ml, day 4",58.54
same,CH4,"8.33 µg/ml, day 5",181 µ Moles
same,H2,"8.33 µg/ml, day 5",0 µ Moles
same,HAc (acetate),"8.33 µg/ml, day 5",33.15
same,HBu (butyrate),"8.33 µg/ml, day 5",7.14
same,HFo (formate),"8.33 µg/ml, day 5",0.30
same,HPr (propionate),"8.33 µg/ml, day 5",12.66
same,HiBu (isobutyrate),"8.33 µg/ml, day 5",0.35
same,HiVal (isovalerate),"8.33 µg/ml, day 5",1.17
same,Total,"8.33 µg/ml, day 5",54.76
same,AA,"8.33 µg/ml, day 6",0.11 µmol/mL
same,CH4,"8.33 µg/ml, day 6",176 µ Moles
same,H2,"8.33 µg/ml, day 6",0 µ Moles
same,HAc (acetate),"8.33 µg/ml, day 6",29.32
same,HBu (butyrate),"8.33 µg/ml, day 6",5.69
same,HFo (formate),"8.33 µg/ml, day 6",1.02
same,HPr (propionate),"8.33 µg/ml, day 6",11.08
same,HiBu (isobutyrate),"8.33 µg/ml, day 6",0.46
same,HiVal (isovalerate),"8.33 µg/ml, day 6",0
same,Protein,"8.33 µg/ml, day 6",0 mg/mL
same,Total,"8.33 µg/ml, day 6",47.57
same,AA,"8.33 µg/ml, day 7",0.11 µmol/mL
same,CH4,"8.33 µg/ml, day 7",139 µ Moles
same,H2,"8.33 µg/ml, day 7",0 µ Moles
same,HAc (acetate),"8.33 µg/ml, day 7",29.53
same,HBu (butyrate),"8.33 µg/ml, day 7",4.39
same,HFo (formate),"8.33 µg/ml, day 7",0.73
same,HPr (propionate),"8.33 µg/ml, day 7",13.12
same,HiBu (isobutyrate),"8.33 µg/ml, day 7",0.76
same,HiVal (isovalerate),"8.33 µg/ml, day 7",0.77
same,Protein,"8.33 µg/ml, day 7",0 mg/mL
same,Total,"8.33 µg/ml, day 7",49.29
same,AA,"8.33 µg/ml, day 8",0.09 µmol/mL
same,CH4,"8.33 µg/ml, day 8",158 µ Moles
same,H2,"8.33 µg/ml, day 8",0 µ Moles
same,HAc (acetate),"8.33 µg/ml, day 8",26.19
same,HBu (butyrate),"8.33 µg/ml, day 8",5.49
same,HFo (formate),"8.33 µg/ml, day 8",0.55
same,HPr (propionate),"8.33 µg/ml, day 8",13.48
same,HiBu (isobutyrate),"8.33 µg/ml, day 8",0.65
same,HiVal (isovalerate),"8.33 µg/ml, day 8",2.20
same,Protein,"8.33 µg/ml, day 8",0 mg/mL
same,Total,"8.33 µg/ml, day 8",48.55
same,AA,"8.33 µg/ml, day 9",0.10 µmol/mL
same,CH4,"8.33 µg/ml, day 9",157 µ Moles
same,H2,"8.33 µg/ml, day 9",0 µ Moles
same,HAc (acetate),"8.33 µg/ml, day 9",27.31
same,HBu (butyrate),"8.33 µg/ml, day 9",3.06
same,HFo (formate),"8.33 µg/ml, day 9",0.50
same,HPr (propionate),"8.33 µg/ml, day 9",13.73
same,HiBu (isobutyrate),"8.33 µg/ml, day 9",0.58
same,HiVal (isovalerate),"8.33 µg/ml, day 9",0.55
same,Protein,"8.33 µg/ml, day 9",0 mg/mL
same,Total,"8.33 µg/ml, day 9",45.71
same,AA,"8.33 µg/ml, day 10",0.24 µmol/mL
same,CH4,"8.33 µg/ml, day 10",159 µ Moles
same,H2,"8.33 µg/ml, day 10",0 µ Moles
same,HAc (acetate),"8.33 µg/ml, day 10",24.52
same,HBu (butyrate),"8.33 µg/ml, day 10",2.56
same,HFo (formate),"8.33 µg/ml, day 10",0.23
same,HPr (propionate),"8.33 µg/ml, day 10",12.89
same,HiBu (isobutyrate),"8.33 µg/ml, day 10",0.21
same,HiVal (isovalerate),"8.33 µg/ml, day 10",0.05
same,Protein,"8.33 µg/ml, day 10",0 mg/mL
same,Total,"8.33 µg/ml, day 10",40.45
same,Caloric Value of CH3,"8.33 µg/ml, produced on Day 10",33.54
same,Caloric Value of H2,"8.33 µg/ml, produced on Day 10",0
same,Caloric Value of HAc,"8.33 µg/ml, produced on Day 10",90.96
same,Caloric Value of HBu,"8.33 µg/ml, produced on Day 10",21.42
same,Caloric Value of HFo,"8.33 µg/ml, produced on Day 10",0
same,Caloric Value of HPr,"8.33 µg/ml, produced on Day 10",87.89
same,Caloric Value of HiBu,"8.33 µg/ml, produced on Day 10",0
same,Caloric Value of HiVal,"8.33 µg/ml, produced on Day 10",0
same,"Caloric Value, Total (VFA's)","8.33 µg/ml, produced on Day 10",200.27
same,Total Cal in VFA & Gas,"8.33 µg/ml, produced on Day 10",233.79 cal
same,CH4 produced on Day 10,[1],159
same,H2 produced on Day 10,[1],0
same,HAc (acetate) produced on Day 10,[1],434.4
same,HBu (butyrate) produced on Day 10,[1],41.2
same,HFo (formate) produced on Day 10,[1],0
same,HPr (propionate) produced on Day 10,[1],240.8
same,HiBu (isobutyrate) produced on Day 10,[1],0
same,HiVal (isovalerate) produced on Day 10,[1],0
same,Total VFA's produced on Day 10,[1],716.4
same,methane production,"25 µg/ml, by day 10",seemed to be recovering
same,AA,"25 µg/ml, day 2",0.16 µ Moles/ml
same,CH4,"25 µg/ml, day 2",197 µ Moles
same,H2,"25 µg/ml, day 2",0 µ Moles
same,HAc (acetate),"25 µg/ml, day 2",46.39
same,HBu (butyrate),"25 µg/ml, day 2",10.94
same,HFo (formate),"25 µg/ml, day 2",1.24
same,HPr (propionate),"25 µg/ml, day 2",12.69
same,HiBu (isobutyrate),"25 µg/ml, day 2",1.66
same,HiVal (isovalerate),"25 µg/ml, day 2",2.55
same,Protein,"25 µg/ml, day 2",0 mg/mL
same,Total,"25 µg/ml, day 2",75.45
same,AA,"25 µg/ml, day 3",0.17 µ Moles/ml
same,CH4,"25 µg/ml, day 3",166 µ Moles
same,H2,"25 µg/ml, day 3",0 µ Moles
same,HAc (acetate),"25 µg/ml, day 3",35.36
same,HBu (butyrate),"25 µg/ml, day 3",7.27
same,HFo (formate),"25 µg/ml, day 3",1.05
same,HPr (propionate),"25 µg/ml, day 3",12.93
same,HiBu (isobutyrate),"25 µg/ml, day 3",1.21
same,HiVal (isovalerate),"25 µg/ml, day 3",0.59
same,Protein,"25 µg/ml, day 3",0 mg/mL
same,Total,"25 µg/ml, day 3",58.40
same,CH4,"25 µg/ml, day 4",164 µ Moles
same,H2,"25 µg/ml, day 4",0 µ Moles
same,HAc (acetate),"25 µg/ml, day 4",36.52
same,HBu (butyrate),"25 µg/ml, day 4",6.38
same,HFo (formate),"25 µg/ml, day 4",0.71
same,HPr (propionate),"25 µg/ml, day 4",14.32
same,HiBu (isobutyrate),"25 µg/ml, day 4",0.86
same,HiVal (isovalerate),"25 µg/ml, day 4",1.33
same,Total,"25 µg/ml, day 4",60.11
same,CH4,"25 µg/ml, day 5",170 µ Moles
same,H2,"25 µg/ml, day 5",0 µ Moles
same,HAc (acetate),"25 µg/ml, day 5",34.06
same,HBu (butyrate),"25 µg/ml, day 5",6.63
same,HFo (formate),"25 µg/ml, day 5",0.44
same,HPr (propionate),"25 µg/ml, day 5",14.87
same,HiBu (isobutyrate),"25 µg/ml, day 5",0.56
same,HiVal (isovalerate),"25 µg/ml, day 5",0.78
same,Total,"25 µg/ml, day 5",57.33
same,AA,"25 µg/ml, day 6",0.11 µ Moles/ml
same,CH4,"25 µg/ml, day 6",143 µ Moles
same,H2,"25 µg/ml, day 6",0 µ Moles
same,HAc (acetate),"25 µg/ml, day 6",28.98
same,HBu (butyrate),"25 µg/ml, day 6",4.26
same,HFo (formate),"25 µg/ml, day 6",0.68
same,HPr (propionate),"25 µg/ml, day 6",13.87
same,HiBu (isobutyrate),"25 µg/ml, day 6",0.53
same,HiVal (isovalerate),"25 µg/ml, day 6",0.20
same,Protein,"25 µg/ml, day 6",0.01 mg/mL
same,Total,"25 µg/ml, day 6",48.49
same,AA,"25 µg/ml, day 7",0.24 µ Moles/ml
same,CH4,"25 µg/ml, day 7",58 µ Moles
same,H2,"25 µg/ml, day 7",8 µ Moles
same,HAc (acetate),"25 µg/ml, day 7",22.54
same,HBu (butyrate),"25 µg/ml, day 7",5.02
same,HFo (formate),"25 µg/ml, day 7",0.61
same,HPr (propionate),"25 µg/ml, day 7",13.54
same,HiBu (isobutyrate),"25 µg/ml, day 7",0.75
same,HiVal (isovalerate),"25 µg/ml, day 7",0.51
same,Protein,"25 µg/ml, day 7",0 mg/mL
same,Total,"25 µg/ml, day 7",42.95
same,AA,"25 µg/ml, day 8",0.22 µ Moles/ml
